According to BindingDB's records for patent WO2022104345 (Genentech, 2022):

The compounds below were run against von Hippel-Lindau disease tumor suppressor (Homo sapiens, UniProt P40337) (assay: VHL HEK-293 BRET Assay).
Procedure: The VHL NanoBRET Target Engagement Assay analyzes the apparent affinity of test compounds for VHL in cells by competitive displacement of a VHL NanoBRET tracer reversibly bound to a NanoLuc VHL fusion protein stably expressed in the cells.[0488] Test compounds were transferred to the assay plate (384 Well White Non-Binding Corning Assay Plates (Corning-3574)) using an Echo 555 Liquid Handler (Labcyte) in 2.5 nL increments and, as appropriate, intermediate stock concentrations of compounds, in order to prepare a titration series.50 nL of control compound (10mM; parental unlabeled VHL antagonist; see structure below) and 50 nL of DMSO (negative control) were dispensed into the appropriate control wells. DMSO was backfilled to a final volume of 50 nL as required.50nl per well of 1 mM VHL NanoBRET Tracer in DMSO (NanoBRETTM Tracer-PEG2-590 (see structure below)) was transferred into each well using an Echo 555 (ultimately yielding a final concentration of 1uM). HEK 293 RT VHL-NanoLuc stable cells were cultured in DMEM High Glucose with Pyruvate, 10% fetal bovine serum, 2 mg/mL of Geneticin Selective Antibiotic (50 mg/ml) and 2 mM HEPES (1 M). Cells were seeded in Opti-MEM (Life Technologies-11058-021), 1.7 × 10^5 cells/mL, 40 ^l per well into the assay plate, centrifuged at 500 rpm for 30 seconds and incubated for 2 hours. Max Signal control wells consisted of DMSO only treated wells. Minimum Signal control wells contained of 10 uM parental unlabeled VHL antagonist (control compound see structure below). 3X Complete Substrate plus Inhibitor Solution was prepared in Opti-MEM (consists of a 1:166 dilution of NanoBRET Nano-Glo Substrate plus a 1:500 dilution of Extracellular NanoLuc Inhibitor in Opti-MEM), and 20 ul was dispensed into each well of the 384-well plate and centrifuged at 1000 rpm for 1 minute, then incubated for 2 minutes at room temperature. Background Signal control wells were prepared without tracer for background correction steps.[0489] Plates were read using a PerkinElmer Envision Reader (model 2104-0020) equipped with Luminescence option (Mirror: BRET2 Enh (PE Barcode 659), Emission Filter: Omega 610LP (Barcode 504), 2nd Emission Filter: Umbelliferone 460 (Barcode 207), Measurement height: 6.5 mm, Measurement time: 1s). The raw BRET ratio values were calculated by dividing the acceptor emission value (610 nm) by the donor emission value (460nm) for each sample. To correct for background, the BRET ratio in the absence of tracer (average of no-tracer control samples) was subtracted from the BRET ratio of each sample. Raw BRET units were converted to milliBRET units (mBU) by multiplying each raw BRET value by 1,000. The normalized NanoBRET signal was calculated relative to the Max Signal control wells (DMSO treated control wells) and the Minimum Signal control wells. Percentage inhibition was calculated relative to the Minimum Signal control and Maximum Signal control wells. IC50 values were derived by four parameter curve fitting using the Robust method.

Chain of von Hippel-Lindau disease tumor suppressor (P40337 whole entry, the tested form may be a part): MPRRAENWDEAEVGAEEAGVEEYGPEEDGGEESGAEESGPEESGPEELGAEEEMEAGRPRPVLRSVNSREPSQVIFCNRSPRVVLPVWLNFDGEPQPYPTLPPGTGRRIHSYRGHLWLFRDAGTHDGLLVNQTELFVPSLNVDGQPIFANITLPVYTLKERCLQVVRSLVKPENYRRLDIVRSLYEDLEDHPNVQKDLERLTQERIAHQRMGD

Row | IC50 [µM] | Structure (SMILES)
1 | > 100 | CNC(=O)[C@@H]1C[C@@H](O)CN1C(=O)[C@H](C1CCNCC1)n1cc(C2CC2)nn1 [WO2022104345, Example S7]
2 | > 100 | CNC(=O)[C@@H]1C[C@@H](O)CN1C(=O)[C@H](C1CCN(C)CC1)n1cc(C2CC2)nn1 [WO2022104345, Example S8]
3 | > 100 | CNC(=O)[C@@H]1C[C@@H](O)CN1C(=O)[C@@H](C(C)C)n1cc(C2CC2)nn1 [WO2022104345, Compound 12]
4 | 4.75 | CNC(=O)[C@@H]1C[C@@H](O)CN1C(=O)C(=C(C)C)n1cc(C2CC2)nn1 [WO2022104345, Compound 32]
5 | 1.21 | CNC(=O)[C@@H]1C[C@@H](O)CN1C(=O)[C@H](C(C)C)n1cc(C2(C)CC2)nn1 [WO2022104345, Compound 21]
6 | 3 | CNC(=O)[C@@H]1C[C@@H](O)CN1C(=O)[C@H](C(C)C)n1cc(C2CC2)nn1 [WO2022104345, Compound 11]
7 | 0.9 | CNC(=O)[C@@H]1C[C@@H](O)CN1C(=O)[C@H](C(C)C)n1cc(-c2cncs2)nn1 [WO2022104345, Compound 41]
8 | 62.8 | CNC(=O)[C@@H]1C[C@@H](OC(C)=O)CN1C(=O)[C@H](n1cc(C2CC2)nn1)C(C)(C)C [WO2022104345, Compound 13]
